# From US8003105B2, “Method of treating cancer by co-administration of anticancer agents” (Astellas Pharma Inc., priority 2006, dated 2011)
# Key:
# [1] = tested on: human lung carcinoma cell line Calu 6; test: Test Example 2A: YM155 followed by docetaxel (sequential), Calu 6 xenograft in nude mice; format: in vivo; details: for Number of CRs: animals with complete regression / animals in group; for Tumor Volume day 0 / Body Weight day 35 / Tumor Volume day 35: mean ± SEM, n=8
# Experimental: (§1) The following study was conducted in the same way as Test Example 1 except for the administration timing.
# A) The first day of administration was designated day 0, and observation continued until day 35. Each group (n=8) was treated as follows.
# (§2) For 7-day sc continuous infusion, an osmotic pump containing either YM155 or physiological saline, was implanted in the dorsum of each animal while under anesthesia. The vehicle control group received a 7-day sc continuous infusion of physiological saline starting on day 0, and iv bolus injection of physiological saline on days 7, 11 and 15. The YM155 group received a 7-day sc continuous infusion of YM155 at 2 mg/kg/day starting on day 0 and iv bolus injection of physiological saline on days 7, 11 and 15. The docetaxel group received iv bolus injection of docetaxel at 20 mg/10 mL/kg on days 7, 11 and 15, as well as a 7-day sc continuous infusion of physiological saline starting on day 0. The combination group received both compounds instead of the vehicle, similarly to the YM155 and docetaxel groups. Results
# [2] = tested on: human lung carcinoma cell line Calu 6; test: Test Example 2B: docetaxel followed by YM155 (sequential), Calu 6 xenograft in nude mice; format: in vivo; details: for Number of CRs: animals with complete regression / animals in group; for Tumor Volume day 0 / Body Weight day 35 / Tumor Volume day 35: mean ± SEM, n=8
# Experimental: as §1
# B) The first day of administration was designated day 0, and observation continued until day 35. Each group (n=8) was treated as follows.
# as §2, with “day 8,” for “day 0,”, “days 0, 4” for “days 7, 11”, “and 8.” for “and 15.”, “day 8,” for “day 0”, “and 8,” for “and 15,”, “day 8.” for “day 0.”
# [3] = tested on: human lung carcinoma cell line Calu 6; test: Test Example 1: YM155 concomitant with docetaxel, Calu 6 xenograft in nude mice; format: in vivo; details: for Number of Complete Regressions: animals with CR / animals in group, during the experimental period to day 35; for Tumor Volume day 0: day 0 (first day of administration); for Tumor Volume day 0 / Body Weight day 35 / Tumor Volume day 35: mean ± SEM, n=8
# Experimental: The dose levels are expressed in terms of YM155, the cationic moiety of the drug substance. Docetaxel hydrate (Taxotere® INJECTION) was purchased from Sanofi-Aventis Pharma Ltd. (West Lavel, FRA) and used as docetaxel.
# YM155 was dissolved in and diluted with physiological saline in order to prepare dosing solutions (concentrations calculated using the following formulation: dose×mean body weight for each group/daily release volume). These solutions were prepared immediately before the implantation of an osmotic pump (Alzet® model 1007D Micro-Osmotic Pump, DURECT Co., CA, USA) into the test subjects. The solutions were then loaded into the pump. Docetaxel was diluted with physiological saline to prepare 2 mg/mL solutions immediately before administration.
# The human lung carcinoma cell line Calu 6 (HTB-56, Lot No. 208280) was obtained from American Type Culture Collection (VA, USA). The cells were cultured at 37° C. in a 5% CO2 atmosphere in RPMI1640 medium supplemented with 10% heat-inactivated fetal bovine serum. The cells were collected with trypsin, suspended in PBS at 6×10^7 cells/mL, and then mixed with an equivalent volume of Matrigel® Basement Membrane Matrix (Becton Dickinson Co., Bedford, Mass., USA).
# Five-week-old male nude mice (CAnN.Cg-Foxn1nu/CrlCrlj(nu/nu)) were purchased from Charles River Laboratories Japan, Inc (Kanagawa, Japan). They were maintained on a standard diet and water throughout the experiments under specific pathogen-free conditions. The cells were cultured in vitro and 3×10^6 cells/0.1 mL/mouse were grafted subcutaneously into the flank of 6-week-old nude mice. The mice with tumor volumes (length×width^2×0.5) of 97.3 to 182.7 mm^3 were divided into groups. This was done using SAS software in order to minimize intragroup and intergroup tumor volume variation.
# The first day of administration was designated day 0, and observation continued until day 35. Each group (n=8) was treated as follows.
# For 7-day sc continuous infusion, an osmotic pump containing either YM155 or physiological saline, was implanted in the dorsum of each animal while under anesthesia. The vehicle control group received a 7-day sc continuous infusion of physiological saline starting on day 0, and iv bolus injection of physiological saline on days 0, 4 and 8. The YM155 group received a 7-day sc continuous infusion of YM155 at 2 mg/kg/day starting on day 0, and iv bolus injection of physiological saline on days 0, 4 and 8. The docetaxel group received iv bolus injection of docetaxel at 20 mg/10 mL/kg on days 0, 4 and 8, as well as a 7-day sc continuous infusion of physiological saline starting on day 0. The combination group received both compounds instead of the vehicle, similarly to the YM155 and docetaxel groups.
# Body weight and tumor diameter were measured every 3-4 days using calipers, and tumor volume was determined by calculating the volume of an ellipsoid using the formula: length×width^2×0.5. Antitumor activities are expressed as percent inhibition of tumor growth (% inh) and percent regression of the tumor (% reg). […] The percent regression of the tumor was calculated for all groups with observed tumor regression, using the following formula: 100×{1−(mean tumor volume of each group on day 35)/(mean tumor volume of each group on day 0)}. The number of Complete Regressions (CRs) in all groups were checked during the experimental period. The CR is defined by instances in which the tumor burden falls bellow the limit of palpation.
# Values are expressed as the mean± the standard error of the mean (SEM). Tumor volume and body weight on day 35 were compared between each single compound group and combination group using the Student's t-test. P values of less than 5% are considered significant. SAS software was used for data processing.
# [4] = tested on: human NSCLC xenograft models; details: NSCLC xenograft model; Ref. 15; cited from earlier work
# [5] = tested on: lymphoma WSU-DLCL-2 cells; test: Test Example 6: YM155 followed by R-ICE, WSU-DLCL-2 xenograft; format: in vivo, nude mice
# Experimental: The study was conducted in the same way as Test Example 5 according to the following dosage regimen.
# YM155 group YM155 2 mg/kg/day (7-day sc continuous infusion)
# RICE group RTX 50 mg/kg, i.v. (day 6 and 8)+(IFM 400 mg/kg+CBDCA 30 mg/kg), i.v (day 9)+ETP 10 mg/kg, i.v (day 8, 9 and 10)
# YM155→RICE group YM155 2 mg/kg/day (7-day sc continuous infusion)+RTX 50 mg/kg, i.v. (day 6 and 8)+(IFM 400 mg/kg+CBDCA 30 mg/kg), i.v. (day 9)+ETP 10 mg/kg, i.v. (day 8, 9 and 10)
# In the table, values are expressed as the mean±SEM (n=8, RICE group: n=6). ¶¶: P<0.01 versus an RICE group, ##: P<0.01 versus YM155 group, N.S.: no significance from RICE group (Student's t-test).
# [6] = day 35, YM155 2 mg/kg/day 7-day sc infusion from day 0, docetaxel 20 mg/kg/day iv day 7, 11, 15
# [7] = day 35, docetaxel 20 mg/kg/day iv day 0, 4, 8, YM155 2 mg/kg/day 7-day sc infusion from day 8
# [8] = day 35, YM155 2 mg/kg/day 7-day sc infusion from day 0, docetaxel 20 mg/kg/day iv day 0, 4, 8
SMILES,Number of CRs [1],Tumor Volume day 0 [1] [mm^3],"Body Weight day 35 [1, 6] [g]","Tumor Volume day 35 [1, 6] [mm^3]",Number of CRs [2],Tumor Volume day 0 [2] [mm^3],"Body Weight day 35 [2, 7]","Tumor Volume day 35 [2, 7] [mm^3]",Number of Complete Regressions [3],Tumor Volume day 0 [3] [mm^3],"Antitumor Activity, percent inhibition of tumor growth (% inh) [3, 8] [%]","Body Weight day 35 [3, 8]","Tumor Volume day 35 [3, 8] [mm^3]",other results
"CC(=O)O[C@@]12CO[C@@H]1C[C@H](O)[C@@]1(C)C(=O)[C@H](O)C3=C(C)[C@@H](OC(=O)[C@H](O)[C@@H](NC(=O)OC(C)(C)C)c4ccccc4)C[C@@](O)([C@@H](OC(=O)c4ccccc4)[C@H]21)C3(C)C [Docetaxel, Docetaxel hydrate]",0/8,209.1 ± 18.3,21.03 ± 0.94,188.8 ± 29.1,0/8,210.0 ± 22.6,23.84 ± 1.01 ^ g,67.2 ± 15.1,0/8,121.4 ± 7.0,> 100,24.95 ± 0.54 ^ g,58.0 ± 20.4,"Antitumor Activity, percent inhibition of tumor growth (% inh) [1, 6]: > 100%; Antitumor Activity, percent regression of the tumor (% reg) [1, 6]: 10%; Antitumor Activity, percent inhibition of tumor growth (% inh) [2, 7]: > 100%; Antitumor Activity, percent regression of the tumor (% reg) [2, 7]: 68%; Antitumor Activity, percent regression of the tumor (% reg) [3, 8]: 52%"
"COCCn1c2c([n+](Cc3cnccn3)c1C)C(=O)c1ccccc1C2=O.[Br-] [YM155, 1-(2-methoxyethyl)-2-methyl-4,9-dioxo-3-(pyrazin-2-ylmethyl)-4,9-dihydro-1H-naphtho[2,3-d]imidazol-3-ium bromide]",0/8,208.5 ± 18.6,26.25 ± 0.25,251.8 ± 50.7,0/8,206.9 ± 21.8,24.80 ± 1.01 ^ g,1437.5 ± 225.5,0/8,121.4 ± 6.9,99,26.13 ± 0.56 ^ g,142.3 ± 16.9,"anti-tumor activity of 7-day continuous infusion [4]: induced tumor regression; Number of CRs ([5]; animals with complete regression / animals in group): 0/8; Tumor Volume day 0 ([5]; day 0, mean ± SEM, n=8, RICE group n=6): 405.1 ± 13.8 mm^3; Antitumor Activity, percent inhibition of tumor growth (% inh) ([5]; day 28, YM155 2 mg/kg/day 7-day sc infusion, RICE given day 6-10): 45%; Body Weight day 28 ([5]; day 28, YM155 2 mg/kg/day 7-day sc infusion, RICE given day 6-10, mean ± SEM): 28.81 ± 0.23 g; Tumor Volume day 28 ([5]; day 28, YM155 2 mg/kg/day 7-day sc infusion, RICE: RTX 50 mg/kg iv day 6, 8 + IFM 400 mg/kg + CBDCA 30 mg/kg iv day 9 + ETP 10 mg/kg iv day 8-10, mean ± SEM): 1181.3 ± 174.7 mm^3"
